In brackets after ≈: the same amount, converted by molar mass. Entries after “also recorded” stand apart in the source; their conditions may differ. One block for each molecule: values may come before it.
Key:
Assay type in all cases: physicochemical
[1] = Slurry competition experiments (inter-conversion study of crystal forms); conditions: for Thermodynamic stability relationship / conversion in slurry: slurry in H2O and n-Heptane for 2 days, RT and 70° C.
Description: To understand the thermodynamic stability relationship between Form A, B and C, slurry competition experiments in H2O and n-Heptane were performed at RT and 70° C. Prior to the study, the starting material (Form A of Compound (I)) was used to saturate the corresponding solvent at RT and 70° C. before filtered to obtain a near-saturated solution. Equal amounts (˜ 5 mg) of Form A, Form B and Form C were weighed and then added to 0.3 mL of the prepared solution to form a new suspension, which was stirred magnetically (˜1000 rpm) at RT/70° C. for about 2 days.

[2] = Kinetic solubility in bio-relevant media (SGF, FaSSIF, FeSSIF) and H2O at 37° C.; conditions: for Form change after kinetic solubility test: bio-relevant media or H2O, XRPD of residual solids; for solubility at 24 h / solubility at 4 h: 37 °C, thermodynamic from solid
Description: Kinetic solubility tests of Form A, Form B, and Form C was performed in bio-relevant media (SGF, FaSSIF and FeSSIF) and H2O at 37° C. Solids were suspended into FaSSIF, FeSSIF, SGF and H2O with target conc. of ˜10 mg/mL. The suspensions were agitated on a rolling incubator at 25 rpm (in the incubator set at 37° C.) for 1, 4 and 24 hrs. At each time point, 1 mL of the suspension was pipetted out for centrifugation at 25000 rpm (3 min) and filtration through 0.45 μm membrane to obtain supernatant for HPLC solubility and pH tests. The residual solids were analyzed by XRPD. […] The solubility of Form A/B/C was summarized from Table 22-24.

[3] = Physical and chemical stability on storage (XRPD and HPLC); conditions: 40° C./75% RH; 25° C./60% RH; 60° C.; two and four weeks
Description: To evaluate the physical and chemical stability, Form A, Form B, and Form C were stored in 3 conditions (40° C./75% RH; 25° C./60% RH; and 60° C.) for two and four weeks. All samples were characterized using XRPD and HPLC.

[4] = Form identification by heating to 100° C. and cooling to RT (XRPD comparison)
Description: A weight loss of 5.7% up to 100° C. was observed on the TGA curve for Form C prepared by evaporation. […] (peak temperature) and 124.9° C. (onset temperature). […] (peak temperature) and 127.0° C. (onset temperature) were observed on the DSC curve. For form identification, variable-temperature XRPD (VT-XRPD) was performed for Form C. […] Considering the large TGA weight loss and no XRPD change after removal of water/solvent (VT-XRPD). Single crystal structure determination confirmed that Form C is a channel hydrate (without form change after dehydration).
A two-stage weight loss of 3.8% up to 85° C. and 11.5% from 85° C. to 120° C. was observed on the TGA curve. […] For form identification, Form D was heated to 100° C. and cooled to RT. […] According to the results, Form D was characterized to be an IPA solvate.

[5] = Dynamic Vapor Sorption (DVS); conditions: for Weight gain by DVS: 0 percent to 95 percent relative humidity; for Weight gain by DVS / Hygroscopicity: about 25 degrees centigrade; for Form change after DVS test: XRPD after DVS, 25° C., 0 to 95% RH; for Hygroscopicity: no hygroscopicity = weight gain less than 0.2 weight percent, 0 to 95 percent RH
Description: DVS was measured via a SMS (Surface Measurement Systems) DVS Intrinsic. The relative humidity at 25° C. were calibrated against deliquescence point of LiCl, Mg(NO3)2 and KCl. To investigate the solid form stability as a function of humidity, DVS isotherm plots of Form A, Form B, and Form C were collected at 25° C. between 0 and 95% RH. […] As determined by Dynamic Vapor Sorption (DVS) in the range of from 0 percent to 95 percent relative humidity at a temperature of about 25 degrees centigrade (plus or minus 0.2 degrees C.), the crystalline Form A, Form B, and Form C of Compound (I) show a weight gain of about 0.09 weight percent, 0.07 weight percent, and 5.7 weight percent, respectively.

[6] = Equilibrium solubility in pH buffers, residual solid by XRPD; conditions: 8 pH buffers (pH 1.0-8.0), RT, 24 hrs, XRPD of residual solids
Description: Equilibrium solubility of Form B was measured in 8 pH buffers (i.e., pH 1.0, 2.0, 3.0, 4.0, 5.0, 6.0, 7.0, 8.0) at RT for 24 hrs. Solids were suspended into pH buffers with target conc. of ˜10 mg/mL. The suspensions were slurried at RT for 24 hrs (1000 rpm), prior to centrifugation at 20000 rpm (2 min), and filtration through 0.45 μm membrane to obtain supernatant for HPLC solubility and pH tests. The residual solids were analyzed by XRPD.

[7] = Exposure to ambient condition (XRPD comparison)
Source text: Therefore, TGA and DSC characterizations were not performed for Form E. According to the single crystal structure determination results, Form E is a DCM solvate.

SMILES: CN1C(=O)[C@@H](NC(=O)c2nnc(Cc3ccccc3)[nH]2)COc2cccnc21 [Form A + B + C]
Crystal form after slurry competition ([1]; H2O or n-Heptane, RT or 70° C., about 2 days (experiments 1-4, merged cell)): Form B

SMILES: CN1C(=O)[C@@H](NC(=O)c2nnc(Cc3ccccc3)[nH]2)COc2cccnc21 [Form A, (S)-5-benzyl-N-(5-methyl-4-oxo-2,3,4,5-tetrahydropyrido [3,2-b][1,4]oxazepin-3-yl)-4H-1,2,4-triazole-3-carboxamide]
solubility at 24 h ([2]; FaSSIF, pH 6.5, fassif, FaSSIF (pH 6.5), 24 hr): 100 µg/mL (≈ 264 µM)
Solubility ([2]; FeSSIF (pH 5.0), 1 hr): 120 µg/mL (≈ 317 µM)
solubility at 4 h ([2]; FeSSIF, pH 5, fessif, FeSSIF (pH 5.0), 4 hr): 120 µg/mL (≈ 317 µM)
solubility at 24 h ([2]; FeSSIF, pH 5, fessif, FeSSIF (pH 5.0), 24 hr): 120 µg/mL (≈ 317 µM)
Solubility ([2]; H2O (pH 6.5), 1 hr): 80 µg/mL (≈ 211 µM)
solubility at 4 h ([2]; SGF, pH 1.8, simulated gastric fluid, SGF (pH 1.8), 4 hr): 100 µg/mL (≈ 264 µM)
solubility at 24 h ([2]; SGF, pH 1.8, simulated gastric fluid, SGF (pH 1.8), 24 hr): 100 µg/mL (≈ 264 µM)
Form change after kinetic solubility test [2]: No form change
solubility at 4 h ([2]; water, pH 6.5, water, H2O (pH 6.5), 4 hr): 90 µg/mL (≈ 238 µM)
solubility at 24 h ([2]; water, pH 6.5, water, H2O (pH 6.5), 24 hr): 90 µg/mL (≈ 238 µM)
Form change on storage (XRPD) [3]: no observable form change
HPLC purity change on storage [3]: no noticeable HPLC purity change
Thermodynamic stability relationship / conversion in slurry [1]: converted to Form B
Weight gain by DVS [5]: about 0.09 weight percent
Form change after DVS test [5]: no form change
Hygroscopicity [5]: no hygroscopicity; also recorded: less hygroscopic

Further lines, with some results ahead:

Solubility ([2]; FaSSIF (pH 6.5), 1 hr): 860 µg/mL (≈ 2270 µM)
Solubility ([2]; FaSSIF (pH 6.5), 4 hr): 730 µg/mL (≈ 1930 µM)
Solubility ([2]; FaSSIF (pH 6.5), 24 hr): 150 µg/mL (≈ 396 µM)
Solubility ([2]; FeSSIF (pH 5.0), 1 hr): 970 µg/mL (≈ 2560 µM)
Solubility ([2]; FeSSIF (pH 5.0), 4 hr): 150 µg/mL (≈ 396 µM)
Solubility ([2]; FeSSIF (pH 5.0), 24 hr): 170 µg/mL (≈ 449 µM)
Solubility ([2]; H2O (pH 6.5), 1 hr): 440 µg/mL (≈ 1160 µM)
Solubility ([2]; H2O (pH 6.5), 4 hr): 100 µg/mL (≈ 264 µM)
Solubility ([2]; H2O (pH 6.5), 24 hr): 100 µg/mL (≈ 264 µM)
Solubility ([2]; SGF (pH 1.8), 1 hr): 700 µg/mL (≈ 1850 µM)
Solubility ([2]; SGF (pH 1.8), 4 hr): 110 µg/mL (≈ 291 µM)
Solubility ([2]; SGF (pH 1.8), 24 hr): 100 µg/mL (≈ 264 µM)
Form change after kinetic solubility test [2]: converted to Form A
Final Form ([2]; residual solid by XRPD, H2O (pH 6.5), 1 hr): A + C
Form change on storage (XRPD) [3]: no observable form change
HPLC purity change on storage [3]: no noticeable HPLC purity change
Form change after heating to 100° C. and cooling to RT [4]: no form change
Thermodynamic stability relationship / conversion in slurry [1]: converted to Form B
Weight gain by DVS [5]: ~5.7 weight percent
Form change after DVS test [5]: no form change
SMILES: CN1C(=O)[C@@H](NC(=O)c2nnc(Cc3ccccc3)[nH]2)COc2cccnc21 [Form C, (S)-5-benzyl-N-(5-methyl-4-oxo-2,3,4,5-tetrahydropyrido [3,2-b][1,4]oxazepin-3-yl)-4H-1,2,4-triazole-3-carboxamide]

Solubility ([2]; FaSSIF (pH 6.5), 1 hr): 80 µg/mL (≈ 211 µM)
Solubility ([2]; FaSSIF (pH 6.5), 4 hr): 90 µg/mL (≈ 238 µM)
Solubility ([2]; FaSSIF (pH 6.5), 24 hr): 90 µg/mL (≈ 238 µM)
Solubility ([2]; FeSSIF (pH 5.0), 1 hr): 100 µg/mL (≈ 264 µM)
Solubility ([2]; FeSSIF (pH 5.0), 4 hr): 110 µg/mL (≈ 291 µM)
Solubility ([2]; FeSSIF (pH 5.0), 24 hr): 100 µg/mL (≈ 264 µM)
Solubility ([2]; H2O (pH 6.5), 1 hr): 70 µg/mL (≈ 185 µM)
Solubility ([2]; H2O (pH 6.5), 4 hr): 70 µg/mL (≈ 185 µM)
Solubility ([2]; H2O (pH 6.5), 24 hr): 70 µg/mL (≈ 185 µM)
Solubility ([2]; SGF (pH 1.8), 1 hr): 80 µg/mL (≈ 211 µM)
Solubility ([2]; SGF (pH 1.8), 4 hr): 80 µg/mL (≈ 211 µM)
Solubility ([2]; SGF (pH 1.8), 24 hr): 80 µg/mL (≈ 211 µM)
Form change after kinetic solubility test [2]: No form change
Form change on storage (XRPD) [3]: no observable form change
HPLC purity change on storage [3]: no noticeable HPLC purity change
Form change after equilibrium solubility evaluation [6]: No form change
Thermodynamic stability relationship / conversion in slurry [1]: thermodynamically more stable
Weight gain by DVS [5]: ~0.07 weight percent
Form change after DVS test [5]: no form change
SMILES: CN1C(=O)[C@@H](NC(=O)c2nnc(Cc3ccccc3)[nH]2)COc2cccnc21 [Form B, (S)-5-benzyl-N-(5-methyl-4-oxo-2,3,4,5-tetrahydropyrido [3,2-b][1,4]oxazepin-3-yl)-4H-1,2,4-triazole-3-carboxamide]
Hygroscopicity [5]: less hygroscopic; also recorded: no hygroscopicity; also recorded: not hygroscopic

Form change on exposure to ambient condition [7]: converted to Form C
SMILES: CN1C(=O)[C@@H](NC(=O)c2nnc(Cc3ccccc3)[nH]2)COc2cccnc21 [Form E, (S)-5-benzyl-N-(5-methyl-4-oxo-2,3,4,5-tetrahydropyrido [3,2-b][1,4]oxazepin-3-yl)-4H-1,2,4-triazole-3-carboxamide]

Form change after heating to 100° C. and cooling to RT [4]: converted to Form C
SMILES: CN1C(=O)[C@@H](NC(=O)c2nnc(Cc3ccccc3)[nH]2)COc2cccnc21 [Form D, (S)-5-benzyl-N-(5-methyl-4-oxo-2,3,4,5-tetrahydropyrido [3,2-b][1,4]oxazepin-3-yl)-4H-1,2,4-triazole-3-carboxamide]
